From patent publication US6485931B2, “CHOLESTEROL DEHYDROGENASE, COPROSTAN-3-ONE DEHYDROGENASE AND 4-CHOLESTEN-3-ONE DEHYDROGENASE, COMPOSITIONS CONTAINING THE DEHYDROGENASES, AND METHOD FOR REDUCING AMOUNT OF CHOLESTEROL USING THE COMPOSITIONS” (Kyowa Hakko Kogyo Co., Ltd., priority 1996, dated 2002)

Assays:
[1] = system: 4-cholesten-3-one dehydrogenase A; assay: 4-cholesten-3-one dehydrogenase A titer: coprostan-3-one produced, TLC/FID; format: biochemical, Eubacterium sp. CP 2; settings: for relative activity as substrate (activity of 4-cholesten-3-one defined as 100): substrate specificity; for relative activity in comparison to the case of no addition: 1 mM metal salt; for relative activity (enzyme activity without adding inhibitor defined as 100): 1 mM inhibitor, 30 minutes, pH 7.5, 37° C.
Method: (§1) An enzyme solution was allowed to stand still at 37° C. for 15 minutes using various pH buffer solutions, and remaining activity was measured, and pH range in which activity was not less than 50% of the maximum active value was regarded as a stable pH range. (The following is the same.)
With 0.2 ml of 3 mM 4-cholesten-3-one micelle solution containing 0.33% Triton X-100 is mixed 0.3 ml of a 20 mM PIPES buffer solution (pH 7.5) containing 0.5% Triton X-100 and 1 mM DTT, and 0.1 ml of a 10 mM NADH solution, the resulted mixture is added 0.05 ml of an enzyme solution, and reacted for 30 minutes at 37° C., and then added 0.1 ml of chloroform to extract sterol and to terminate the reaction.
(§2) Then, the quantity of coprostan-3-one produced in the reaction solution is determined using TLC/FID iatroscan. The quantity of coprostan-3-one produced in the reaction solution is determined likewise using an inactivated enzyme which has been previously heated as a control. The enzyme activity which produces 1 μmol of coprostan-3-one per one minute is regarded as 1 unit.

[2] = system: coprostan-3-one dehydrogenase B; assay: coprostan-3-one dehydrogenase B titer: coprostanol produced, TLC/FID; format: biochemical, Eubacterium sp. CP 1; settings: for relative activity in comparison to the case of no addition: 1 mM metal salt; for relative activity (enzyme activity without adding inhibitor is 100): 1 mM inhibitor, 30 minutes, pH 7.5, 37° C.
Method: as §1
With 0.2 ml of 3 mM coprostan-3-one micelle solution containing 0.33% Triton X-100 is mixed 0.3 ml of a 20 mM Tris-hydrochloric acid buffer solution (pH 7.5) containing 1.0% Triton X-100 and 1 mM DTT, and 0.1 ml of a 10 mM NADPH solution, to the resulted mixture is added 0.05 ml of an enzyme solution, reacted for 30 minutes at 37° C., and then added 0.1 ml of chloroform to extract sterol and to terminate the reaction.
(§3) Then, the quantity of coprostanol produced in the reaction solution is determined using TLC/FID iatroscan. The quantity of coprostanol in the reaction solution is determined likewise using an inactivated enzyme which has been previously heated as a control. The enzyme activity which produces 1 μmol of coprostanol per one minute is regarded as 1 unit.

[3] = system: coprostan-3-one dehydrogenase A; assay: coprostan-3-one dehydrogenase A titer: coprostanol produced, TLC/FID; format: biochemical, Eubacterium sp. CP 2; settings: for relative activity in comparison with the case of no addition: 1 mM metal salt; for relative activity (enzyme activity without adding inhibitor defined as 100): 1 mM inhibitor, 30 minutes, pH 7.5, 37° C.
Method: as §1
[…] The enzyme solution was mixed with equal amounts of activating fractions and left for 15 minutes at 5° C., then used.
as §3

[4] = system: cholesterol dehydrogenase A; assay: cholesterol dehydrogenase A titer: 4-cholesten-3-one produced from cholesterol micelle, TLC/FID; format: biochemical, Eubacterium sp. CP 2; settings: for relative activity in comparison with the case of no addition: 1 mM metal salt; for relative activity (enzyme activity without adding inhibitor defined as 100): 1 mM inhibitor, 30 minutes, pH 7.5, 37° C.; for relative activity as substrate (activity of cholesterol is 100): substrate specificity
Method: as §1
With 0.2 ml of 3 mM cholesterol micelle solution containing 0.33% Triton X-100 is mixed 0.3 ml of a 20 mM piperazine-N,N′-bis-(2-ethane […]) (hereinafter, referred to as “PIPES”) buffer solution (pH 7.5) containing 0.5% Triton X-100 and 1 mM dithiothreitol (hereinafter, referred to as “DTT”), and 0.1 ml of a 10 mM […] solution, the resulted mixture is added 0.05 ml of an enzyme solution, reacted for 30 minutes at 37° C., and then added 0.1 ml of chloroform to extract sterol and to terminate the reaction.
Then, the quantity of 4-cholesten-3-one produced in the reaction solution is determined using TLC/FID iatroscan. The quantity of 4-cholesten-3-one produced in the reaction solution is determined likewise using an inactivated enzyme which has been previously heated as a control. The enzyme activity which produces 1 μmol of 4-cholesten-3-one per one minute is regarded as 1 unit.

[5] = system: 4-cholesten-3-one dehydrogenase B; assay: 4-cholesten-3-one dehydrogenase B titer: coprostan-3-one produced, TLC/FID; format: biochemical, Eubacterium sp. CP 1; settings: for relative activity in comparison with the case of no addition: 1 mM metal salt; for relative activity (enzyme activity without adding inhibitor is 100): 1 mM inhibitor, 30 minutes, pH 7.5, 37° C.
Method: as §1
With 0.2 ml of 3 mM 4-cholesten-3-one micelle solution containing 0.33% Triton X-100 is mixed 0.3 ml of a 20 mM Tris-hydrochloric acid buffer solution (pH 7.5) containing 1.0% Triton X-100and 1 mM DTT, and 0.1 ml of a10 mM NADH solution, the resulted mixture is added 0.05 ml of an enzyme solution, reacted for 30 minutes at 37° C., and then added 0.1 ml of chloroform to extract sterol and to terminate the reaction.
as §2

[6] = system: cholesterol dehydrogenase B; assay: cholesterol dehydrogenase B titer: 4-cholesten-3-one produced, TLC/FID; format: biochemical, Eubacterium sp. CP 1; settings: for relative activity in comparison to the case of no addition: 1 mM metal salt; for relative activity (enzyme activity without adding inhibitor is 100): 1 mM inhibitor, 30 minutes, pH 7.5, 37° C.; for relative activity as substrate (activity of cholesterol defined as 100): substrate specificity
Method: as §1
With 0.2 ml of 3 mM cholesterol micelle solution containing 0.33% Triton X-100 is mixed 0.3 ml of a 50 mM phosphoric acid buffer solution (pH 7.5) containing 1.0% Triton X-100 and 1 mM DTT, and 0.1 ml of a 10 mM NADP solution, to the resulted mixture is added 0.05 ml of an enzyme solution, reacted for 30 minutes at 37° C., and then added 0.1 ml of chloroform to extract sterol and to terminate the reaction.
Then, the quantity of 4-cholesten-3-one produced in the reaction solution is determined using TLC/FID iatroscan. […] The enzyme activity which produces 1 μmol of 4-cholesten-3-one per one minute is regarded as 1 unit.

cholesterol in meat = assay: enzymatic conversion to coprostanol in aging period of meat (Embodiment 10); format: biochemical; settings: minced beef, each enzyme 0.2 unit/g meat, PL-D 2 unit/g meat, 0.5 ml 20% nicotinamide, aged 7 days
Method: 10 g of beef 6 hours after slaughtering was made into minced meat, and to this was added the cholesterol dehydrogenase obtained in Embodiment 5 (0.2 unit/g meat), the 4-cholesten-3-one dehydrogenase obtained in Embodiment 6 (0.2 unit/g meat) and the coprostan-3-one dehydrogenase obtained in Embodiment 7 (0.2 unit/g meat) and mixed, and the mixture was aged at 5° C. for 7 days. Also, mixtures to which 0.5 ml of a 20% aqueous nicotinamide solution had been further added, meat to which phospholipase (2 unit/g meat) had been further added and meat to which both of them had been further added at the mixing were aged at […] for 7 days, respectively.
After aging, the meat was freeze-dried and lipid components were extracted with a 25 ml extraction solvent (chloroform:methanol=2:1). Regarding the resulting extracted sample, the amount of converted sterol products was determined using gas chromatography (manufactured by GL Science, TC-1701, column φ0.25 […]×30 m). In Table 5, PL-D represents phospholipase D and COP represents coprostanol, respectively.

[7] = in vivo; cited from earlier work

Which “relative activity as substrate (activity of 4-cholesten-3-one defined as 100)” value [1] does the source give for prognerone here?
The value was 0.

Which results are given for `[Cl][Cu][Cl]` [copper chloride]?
relative activity in comparison to the case of no addition [2]: 0; relative activity in comparison with the case of no addition [3]: 2.7; relative activity in comparison to the case of no addition [1]: 0; relative activity in comparison with the case of no addition [4]: 3.2; relative activity in comparison with the case of no addition [5]: 0; relative activity in comparison to the case of no addition [6]: 0

For `C[C@]12CC[C@H]3[C@@H](CCC4=CC(=O)CC[C@@]43C)[C@@H]1CC[C@@H]2O` [testosterone], which “relative activity as substrate (activity of 4-cholesten-3-one defined as 100)” value [1] is on record?
The value was 0.

For `NC(=O)c1cccnc1` [Nicotinamide, nicotinamide], which “COP conversion (%)” value (cholesterol in meat) is on record?
Its value is 0%.

For `O=S(=O)(O)c1cc[c]([Hg][Cl])cc1` [PCMB, p-chloro mercury phenylsulfonate], which “relative activity (enzyme activity without adding inhibitor is 100)” value [2] is on record?
Its value is 0.

And the “relative activity (enzyme activity without adding inhibitor defined as 100)” value [3]?
Its value is 41.

What about the “relative activity (enzyme activity without adding inhibitor defined as 100)” value [1] of the same molecule?
Its value is 47.

And the “relative activity (enzyme activity without adding inhibitor defined as 100)” value [4]?
Its value is 0.

What about the “relative activity (enzyme activity without adding inhibitor is 100)” value [5] of the same molecule?
Its value is 0.

What about the “relative activity (enzyme activity without adding inhibitor is 100)” value [6] of the same molecule?
Its value is 0.

With `O=P([O-])([O-])[O-].[Na+].[Na+].[Na+]` [phosphate ion, trisodium phosphate] as the molecule, how does the “effect on conversion reaction by cholesterol dehydrogenase B” value [6] read?
The value was “remarkably activated”.

With `NC(=O)CI` [iodine acetamide] as the molecule, how does the “relative activity (enzyme activity without adding inhibitor is 100)” value [2] read?
The value was 95.

What about the “relative activity (enzyme activity without adding inhibitor defined as 100)” value [3] of the same molecule?
Its value is 82.

And the “relative activity (enzyme activity without adding inhibitor defined as 100)” value [1]?
The value was 94.

What about the “relative activity (enzyme activity without adding inhibitor defined as 100)” value [4] of the same molecule?
Its value is 82.

And the “relative activity (enzyme activity without adding inhibitor is 100)” value [5]?
Its value is 99.

Which “relative activity as substrate (activity of 4-cholesten-3-one defined as 100)” value ([5]; substrate specificity) does the source give for `CC(C)CCC[C@@H](C)[C@H]1CC[C@H]2[C@@H]3CC=C4CC(=O)CC[C@]4(C)[C@H]3CC[C@]12C` [5-cholestenon-3-one] here?
The value was 0.

For `CC(C)CCC[C@@H](C)[C@H]1CC[C@H]2[C@@H]3CC[C@@H]4C[C@@H](O)CC[C@]4(C)[C@H]3CC[C@]12C` [coprostanol], which “absorbability through the intestinal tract” value [7] is on record?
The value was “very low”.

With iron chloride as the molecule, how does the “relative activity in comparison to the case of no addition” value [2] read?
Its value is 105.

What about the “relative activity in comparison with the case of no addition” value [3] of the same molecule?
Its value is 12.

And the “relative activity in comparison to the case of no addition” value [1]?
Its value is 110.

And the “relative activity in comparison with the case of no addition” value [4]?
Its value is 95.

And the “relative activity in comparison with the case of no addition” value [5]?
Its value is 107.

And the “relative activity in comparison to the case of no addition” value [6]?
Its value is 0.

With `O=C(O)CI` [iodine acetic acid] as the molecule, how does the “relative activity (enzyme activity without adding inhibitor is 100)” value [6] read?
The value was 98.

Which “relative activity as substrate (activity of cholesterol is 100)” value [4] does the source give for `CC(C)[C@H](C)CC[C@@H](C)[C@H]1CC[C@H]2[C@@H]3CC=C4C[C@@H](O)CC[C@]4(C)[C@H]3CC[C@]12C` [campesterol] here?
The value was 74.

And the “relative activity as substrate (activity of cholesterol defined as 100)” value [6]?
Its value is 50.

Which “relative activity as substrate (activity of 4-cholesten-3-one defined as 100)” value [1] does the source give for `CC(=O)[C@H]1CC[C@H]2[C@@H]3CCC4=CC(=O)CC[C@]4(C)[C@H]3CC[C@]12C` [progesterone] here?
Its value is 41.

Which “relative activity as substrate (activity of cholesterol is 100)” value [4] does the source give for `CC[C@H](/C=C/[C@@H](C)[C@H]1CC[C@H]2[C@@H]3CC=C4C[C@@H](O)CC[C@]4(C)[C@H]3CC[C@]12C)C(C)C` [stigmasterol] here?
The value was 30.

What about the “relative activity as substrate (activity of cholesterol defined as 100)” value [6] of the same molecule?
The value was 39.

For `CC[C@H](CC[C@@H](C)[C@H]1CC[C@H]2[C@@H]3CC=C4C[C@@H](O)CC[C@]4(C)[C@H]3CC[C@]12C)C(C)C` [β sitosterol], which “relative activity as substrate (activity of cholesterol is 100)” value [4] is on record?
The value was 38.

What about the “relative activity as substrate (activity of cholesterol defined as 100)” value [6] of the same molecule?
The value was 67.
